US6548072B1, “Skin care compositions containing an organic extract of chick pea” (Chesebrough-Pond's USA Co., division of Conopco, Inc., priority 1997, dated 2003)

How the values were obtained:
[1] = tested on: piglet epidermal cells; assay: Piglet skin organ culture, 3H-thymidine incorporation into the epidermis; assay type: cell-based, pig
Description: Pig skin is morphologically and biochemically similar to human skin and is therefore used commonly for testing the effects of materials for, human topical use. Fresh shaved skin from piglets was obtained from the local slaughter house, washed with Dove® Soap and dermatomed at 200μ thickness to obtain the top epidermis and dermal layer. Uniform punch biopsies of the dermatomed pig skin was taken using a 7 mm punch. The biopsies were washed in medium containing high antibiotic/antimycotic mix(Kanamycin and penicillin and streptomycin from Gibco) and incubated for 3 days in high glucose DMEM medium containing hydrocortisone, L-glutamine, antibiotic and antimycotic in the absence of serum in transwell plates, 3 biopsies per well. The medium was fed from the bottom of the transwell so that the epidermal side of the biopsies was in contact with air. On the 3rd day, the medium was changed to fresh medium, and the biopsies were exposed to the various concentrations of various actives in 1 μl of DMSO, as indicated in Table 4. 3 days later, medium was changed, actives readded and the biopsies were labeled with 10 μCi of 3H thymidine per well. After washing the biopsies in PBS, the epidermis was split from the dermis by incubating the biopsies for 24 hrs in 2 M sodium bromide solution with shaking. The epidermis was peeled off from the dermis using a tweezer and dissolved in1 ml of 0.5N NaOH with overnight incubation at 60 ° C. 200 μl of the dissolved epidermis was used for scintillation counting to determine the amount of ^3H thymidine incorporation into the epidermis. The data was calculated as mean cpm for at least 4 replicates, and was also calculated as % of control biopsies which received no actives.

[2] = tested on: ZR75 cells; assay: 3H-thymidine incorporation (DNA synthesis / proliferation) in ZR75 cells, test for estrogen-like activity; assay type: cell-based, human; conditions: for ZR 75 DNA synthesis (% of Control): Experiment 1; for % of Control / cpm ± SD: 10 nM
Description: The incorporation of ^3H-thymidine by cultured cells was used as an assay of cell proliferation (ZR75 or keratinocyte). Thymidine is one of four deoxynucleosides which are the monomeric units of DNA. Prior to cell division of a somatic cell, the complete genome of the cell undergoing cell division is replicated. This involves large scale DNA synthesis by the cell and enables both daughter cells to receive identical copies of the genetic material. When ^3H-thymidine is included in the culture media of cells which are synthesizing DNA in preparation for cell division then the labeled thymidine is incorporated into the newly synthesized DNA. The extent of incorporation of ^3H-thymidine into a population of cells is proportional to the rate of DNA synthesis. by this population of cells and therefore an indication of their cellular proliferation.
ZR75 cell line is a ductal breast carcinoma cell line, originally isolated from malignant mammary epithelium of a person (Engel et al., Human breast carcinoma cells in continuous culture: A review., Cancer Res., 38: 4327-4339, 1978) This cell line contains receptors for estrogen, progesterone and other steroid hormones, but responds through an increase in proliferation only to estrogen. The cell line contains high affinity estrogen-specific receptors. Therefore, this cell line is used for testing estrogen-like activity (Markiewicz et al., In vitro bioassays of non-steroidal phytoestrogens, J. Steroid Biochem. Molec. Biol., 45: 399-405, 1993).
1. ZR75 cells (from American Type Culture Collection, Rockville, Md.) were grown in RPMT1640 media (from Gibco Life Technologies) with 10% fetal bovine serum (FBS), 100 units penicillin per ml and 100 units of streptomycin per ml. […] The. cells were seeded at a density of one million per 75 cm2 flask. For the experiment, the cells were seeded in 24 well plates at 100,000 cells per ml per well.
2. After growing for 24 hours, the media was removed, the cells were washed with PBS and 1 ml of RPMI 1640 without serum (but with streptomycin and penicillin) was added. Stock solutions of chick pea extract in dimethyl sulfoxide. (DMSO) and estradiol in water were prepared. […] After another 24 hours, […] of [methyl-3H] thymidine was added to each well. The media was removed after 24 hours. The cells were washed once in PBS, the PBS was removed completely and the cells were left on ice to incubate with 1 ml per well of10% TCA (trichlioroacetic acid) for 30 minutes. The plates were washed 3 times with 5% TCA to remove all traces of thymidine which wasn't incorporated into the cells. 500 μl of 0.1M sodium hydroxide was added to each well and the plates were incubated at room temperature for at least 30 minutes. 250 μl of each sample was transferred to scintillation vials and after adding 5 ml of counting fluid, the vials were counted for 5 minutes each on a setting for tritium. […] Values were expressed as mean of triplicate wells ± standard deviation.

## O=c1c(-c2ccc(O)cc2)coc2cc(O)ccc12 [Daidzein, daidzein]
[1]
  proliferation of piglet epidermal cells, in words: more effective than the natural hormone estradiol
[1]; Experiment 1, 1 μg/ml
  % of Control: 227 ± 24.4 % of Control
  cpm ± SD: 8599 ± 927 cpm
[1]; Experiment 1, 10 μg/ml
  % of Control: 292 ± 76.5 % of Control
  cpm ± SD: 11065 ± 2901 cpm

## C[C@]12CC[C@@H]3c4ccc(O)cc4CC[C@H]3[C@@H]1CC[C@@H]2O [Estradiol, estradiol]
[2]; 0.01 nM
  ZR 75 DNA synthesis (% of Control): 117 ± 19.7 % of Control
[2]; 0.1 nM
  ZR 75 DNA synthesis (% of Control): 106 ± 16.3 % of Control
[2]; 1.0 nM
  ZR 75 DNA synthesis (% of Control): 162 ± 3.2 % of Control
[2]; 10.0 nM
  ZR 75 DNA synthesis (% of Control): 267 ± 15.1 % of Control
[2]; 100 nM
  ZR 75 DNA synthesis (% of Control): 203 ± 51.2 % of Control
[2]; 1000 nM
  ZR 75 DNA synthesis (% of Control): 178 ± 20.1 % of Control
[2]; Experiment 2
  % of Control: 839 ± 27 % of Control
  cpm ± SD: 122254 ± 3940 cpm
[2]; Experiment 3
  % of Control: 211 ± 7.6 % of Control
  cpm ± SD: 30158 ± 1087 cpm
[2]; Table 1
  concentration that increased DNA synthesis of ZR75 cells: ≥ 1 nM
[1]; Experiment 1, 1 nM
  % of Control: 58.9 ± 24.4 % of Control
  cpm ± SD: 2690 ± 1113 cpm
[1]; Experiment 1, 10 nM
  % of Control: 113 ± 24 % of Control
  cpm ± SD: 5190 ± 1096 cpm
[1]; Experiment 1, 100 nM
  % of Control: 39.0 ± 32.6 % of Control
  cpm ± SD: 1757 ± 1492 cpm
[1]; Experiment 2, 1 nM
  % of Control: 196 ± 67.7 % of Control
  cpm ± SD: 2273 ± 783 cpm
[1]; Experiment 2, 10 nM
  % of Control: 330 ± 101 % of Control
  cpm ± SD: 3817 ± 1175 cpm
[1]; Experiment 2, 100 nM
  % of Control: 241 ± 65 % of Control
  cpm ± SD: 2785 ± 751 cpm

## COc1ccc(-c2coc3cc(O)ccc3c2=O)cc1 [Formononetin, formononetin]
[1]; Experiment 1, 1 μg/ml
  % of Control: 126 ± 33.2 % of Control
  cpm ± SD: 4770 ± 1260 cpm
[1]; Experiment 1, 10 μg/ml
  % of Control: 174 ± 76.1 % of Control
  cpm ± SD: 6608 ± 2886 cpm
